From US9833433B1, “Compositions, methods of use, and methods of treatment” (priority 2013, dated 2017)

Assays:
PSD-95 = test: Hippocampal PSD-95 expression (immunoblot); assay type: in vivo, mice; conditions: Δ^9-THC for 7 days
Experimental: (§1) Western blot assay was conducted using specific antibodies (Table S1) to determine expressions of COX-2, glutamate receptor subunits, PSD-95, G-protein subunits, phosphoproteins, BACE1 and neprilysin in hippocampal tissue and/or in cultured cells as described previously (Chen et al., 2012). Surface biotinylation assays were performed to determine surface expression of glutamate receptor subunits in hippocampal slices as described previously (Fan et al., 2010).

[1] = tested on: synaptic release of glutamate; test: Miniature spontaneous EPSCs (mEPSCs) in cultured hippocampal neurons; assay type: cell-based; conditions: Δ^9-THC 3 μM; recorded 24 hrs after treatment
GluA1, GluN2A, GluN2B = test: Immunoblot and surface biotinylation of glutamate receptor subunits in hippocampus; assay type: in vivo; conditions: WT mice; Δ^9-THC for 7 days
Experimental: as §1
Surface biotinylation assays were performed in hippocampal slices as described previously (Chen et al., 2006; Fan et al., 2010). Briefly, hippocampal slices were cut at thickness of 400 μm using a vibratome from mice that received vehicle or Δ^9-THC for 7 consecutive days, and then transferred to a six-well plate and incubated on ice for 1 h in carbogenated ACSF containing 500 μM Sulfo-NHS-SS-biotin (Thermo-Pierce, Rockford, Ill.). Collected tissue was then washed three times for 5 min with ice-cold ACSF containing 10 mM glycine, and was immediately homogenized in 800 μL ice-cold lysis buffer containing 20 mM Tris-HCl, pH 7.5, 1% Triton X-100, 50 mM NaCl, 1 mM EDTA, 0.1% sodium dodecyl sulfate, and a cocktail of protease inhibitors (Sigma, St. Louis, Mo.). After incubation on ice for 30 min, the homogenate was centrifuged at 18000 g at 4° C. for 10 min. Supernatants were collected. […]

COX-2 mRNA = COX-2 mRNA by qPCR in NG108-15 cells; assay type: cell-based; conditions: culture transfected with the control vector; 6 hrs after Δ^9-THC
[2] = tested on: hippocampal LTP at CA3-CA1 and perforant path synapses; test: Hippocampal LTP (fEPSP recordings in slices, theta-burst stimulation); assay type: in vivo, mice; conditions: 10 mg/kg once daily for 7 days; LTP 24 hr after last injection; CA3-CA1 and perforant path
Experimental: Hippocampal LTP both at CA3-CA1 and perforant path synapses were recorded in acutely hippocampal slices and induced by a theta-burst stimulation (TBS) as described previously (Hoffman et al., 2007).
Hippocampal slices were prepared from mice as described previously (Chen et al., 2002; Chen et al., 2012; Fan et al., 2010). Briefly, after decapitation, brains were rapidly removed and placed in cold oxygenated (95% O2, 5% CO2) artificial cerebrospinal fluid (ACSF) containing: 125.0 NaCl, 2.5 KCl, 1.0 MgCl2, 25.0 NaHCO3, 1.25 NaH2PO4, 2.0 CaCl2, 25.0 glucose, 3 pyruvic acid, and 1 ascorbic acid. Slices were cut at a thickness of 350-400 μm and transferred to a holding chamber in an incubator containing ACSF at 36° C. for 0.5 to 1 hour, and maintained in an incubator containing oxygenated ACSF at room temperature (˜22-24° C.) for >1.5 h before recordings. Slices were then transferred to a recording chamber where they were continuously perfused with 95% O2, 5% CO2-saturated standard ACSF at ˜32-34° C. Individual pyramidal and dentate granule neurons were viewed with an upright microscope (Olympus BX51WI) fitted with a 60× water-immersion objective and differential interference contrast (DIC) optics.
Field EPSP (fEPSP) recordings both at CA3-CA1 and perforant path synapses in response to stimuli at a frequency of 0.05 Hz were made using an Axoclamp-2B patch-clamp amplifier (Molecular Devices, CA) in bridge mode. Recording pipettes were pulled from borosilicate glass with a micropipette puller (Sutter Instrument), filled with artificial ACSF (2-4 MΩ). […]

neprilysin (NEP) = test: Neprilysin expression in 5XFAD APP transgenic mice (immunoblot); assay type: in vivo; conditions: TG mice
Experimental: as §1

spatial memory = test: Morris water maze test (spatial memory); assay type: in vivo, mice; conditions: 10 mg/kg once a day for 7 days
Experimental: The classic Morris water maze and fear conditioning tests were performed to determine spatial and fear memory as described previously (Chen et al., 2012). The ‘open field’ test was conducted to detect the locomotor activity and the bar test was used to detect catalepsy (Egashira et al., 2007).
The classic Morris water maze test was used to determine spatial memory as described previously (Chen et al., 2012). A circular water tank (diameter 120 cm and 75 cm in high) was filled with water and the water was made opaque with non-toxic white paint. A round platform (diameter 15 cm) was hidden 1 cm beneath the surface of the water at the center of a given quadrant of the water tank. COX-2 KO and WT mice received training in the Morris water maze for 5 days without any treatments (naïve). […] For each trial, the mouse was released from the wall of the tank and allowed to search, find, and stand on the platform for 10 seconds within the 60-second trial period. […] During the probe test, the platform was removed from the pool, and the task performances were recorded for 60 seconds by a video-camera and the task performances, including swimming paths, speed, and time spent in each quadrant using an EthoVision video tracking system (Noldus). The time spent in each quadrant was analyzed.

hippocampal LTD = test: Hippocampal LTD induced by low-frequency stimulation at CA3-CA1 synapses; assay type: in vivo; conditions: single injection 10 mg/kg i.p.; LTD recorded 24 hrs later; WT mice P12 to P17
Excerpt: Field EPSP (fEPSP) recordings both at CA3-CA1 and perforant path synapses in response to stimuli at a frequency of 0.05 Hz were made using an Axoclamp-2B patch-clamp amplifier (Molecular Devices, CA) in bridge mode. Recording pipettes were pulled from borosilicate glass with a micropipette puller (Sutter Instrument), filled with artificial ACSF (2-4 MΩ). Hippocampal LTP at CA3-CA1 and perforant path synapses was induced by a theta-burst stimulation (TBS), consisting of a series of 10 bursts of 5 stimuli at 100 Hz (200 ms interburst interval, which was repeated three time (Fan et al., 2010; Hoffman et al., 2007; Chen et al., 2012). The input-output function was tested before recording of LTP, and the baseline stimulation strength was set to provide fEPSP with an amplitude of ˜30% from the subthreshold maximum derived from the input-output function. Hippocampal LTD was induced by low-frequency stimulation (900 stimuli at 1 Hz for 15 min) at CA3-CA1 synapses.

In the case of `CCCCCc1cc(O)c2c(c1)OC(C)(C)[C@@H]1CCC(C)=C[C@@H]21` [Δ^9-THC, Δ^9-tetrahydrocannabinol], the PSD-95 expression (PSD-95) is reported as “reduced expression of PSD-95”, the “synaptic release of glutamate (mEPSCs)” value [1] is reported as “enhanced synaptic release of glutamate” and the “total and surface expressions of GluA1, GluN2A, GluN2B (immunoblot)” value (GluA1, GluN2A, GluN2B) is reported as “significantly decreased”. The “COX-2 mRNA expression in NG108-15 cells” value (COX-2 mRNA) was “increased expression of COX-2 mRNA”, the “hippocampal LTP after repeated Δ^9-THC exposure” value [2] was “decreased hippocampal LTP” and the “expression of neprilysin (NEP)” value (neprilysin (NEP)) was “increases expression of neprilysin (NEP)”. For the same compound, the “spatial memory and memory retention after repeated Δ^9-THC” value (spatial memory) was “impaired spatial memory and memory retention” and the “hippocampal LTD after single exposure” value (hippocampal LTD) was “impaired”.
